These are literature values, as cited in US20050020546A1, “Pharmaceutical compositions comprising active vitamin D compounds” (Novacea, Inc., priority 2003, published 2005).

The conditions of the data set: compared with calcitriol.

As to `C=C1/C(=C\C=C2/CCC[C@]3(C)C([C@H](C)CC#CC(C)(C)O)=CC[C@@H]23)C[C@@H](O)C[C@@H]1O` [Ro23-7553], the Hypercalcemic effect entry is on record as “reduced hypercalcemic effect”.
As to `C=C1/C(=C/C=C2\CCC[C@]3(C)C([C@H](C)CC#CC(O)(C(F)(F)F)C(F)(F)F)=CC[C@@H]23)C[C@@H](O)C[C@@H]1O` [Ro24-5531], the Hypercalcemic effect entry is “reduced hypercalcemic effect”.
